Where two headings read alike, the source gives them in different places.
Tests used:
Digitaria sanguinalis = assay: Post-emergence foliage spray, pot culture, fresh weight inhibition (Tables 151-206; 20 days); format: in vivo; details: Digitaria sanguinalis, 480 h, read-out: Control effect (%) of A applied alone in corresponding dose
Method: Table 151-206: Digitaria sanguinalis, Amaranthus retroflexus, Conyza Canadensis, Capsella bursa-pastoris, Eleusine indica were collected in Huangdao of Shandong Province, Sinapis arvensis were collected in Sixian of Anhui Province, Alopecurus japonicus were collected in Tianchang of Anhui Province, Veronica didyma were collected in Siyang of Jiangsu Province.
(§1) The above weeds were cultivated by a pot culture method. […] Full and uniform weed seeds were selected, soaked in warm water at 25° C. for 6 hours, and germinated in a 28° C. biochemical incubator (darkness). The weed seeds that had just germinatedwere evenly placed on the surface of the soil and then covered with 0.5-1 cm soil according to the sizes of seeds.
The culture was carried out in a controllable sunlight greenhouse at 20 to 30° C., in natural light, and relative humidity of 57% to 72%.
(§2) The technical materials were all dissolved in acetone, and diluted with an aqueous solution containing 0.1% emulsifier Tween-80. The dilution is performed as required.
(§3) A ratio of the active ingredient A to the active ingredient B and amounts thereof in each group depends on the characteristics and toxicity of the two agents, as well as the main application purpose of a corresponding formulation. Based on the pre-tests in this study, the dosage of the active ingredient A and B applied alone and in combination were shown in the tables. Water containing the solvent and emulsifier same with the above groups but free of the agents was used as a blank control.
Table 1-48, 51-98, 101-148, 151-206: […] per treatment, that is, a total of 60 weeds were treated in one treatment.
Table 151-206: The agents were used for only once in the experiment. In the stage of weeds with 3˜4 leaves, the weeds were thinned out to maintain 15 weeds per pot and 45 weeds for each treatment, then continued to be cultured to 4˜5 leaves stage of grassy weeds, 5˜6 leaves stage of broadleaf weeds, and treated.
(§4) The well-cultured weeds were evenly placed on a platform with an area of 0.5 m^2, and a solution of agents was sprayed on the stems and leaves thereof by the 3WP-2000-type walking spray tower at a dosage of 450 kg/ha and at a spray pressure of 0.3 MPa. After all the solution was sprayed, the valve was closed. After 30 seconds, the door of the spray tower was opened, and the nutritional bowl was taken out. Then the valve was opened, and the spray tube was cleaned by spraying 50 ml of water.
(§5) A pot-culture method was employed. For the cultivation of weeds, please refer to the Section 1.1), and “Pesticide guidelines for laboratory bioactivity tests—herbicides”. As to a method for applying agents, please refer to the section 2.3.2), that is, a foliage treatment was employed. After the treatment, the weeds were routinely cultured in a greenhouse.
(§6) A method for investigating absolute number was employed, wherein whole seedlings of survival weeds were cut off with a blade along the soil surface, and the fresh weight of the weeds was weighed with an analytical balance. For dead weeds, the fresh weight thereof was zero.
Table 151-206: The investigation was performed after 20 days of the treatment for only once.
Theoretical fresh weight inhibition rate of a combination of two active ingredients in each group was calculated by the Gowing method (E0=X+Y−X*Y/100), and then compared with an actually measured inhibition rate (E), thereby effect of the combination (hereafter referred to as combined effect) on weeds was evaluated: the value of E-E0, which was greater than 10%, corresponded to a synergistic effect, the value of E-E0, which was less than −10%, corresponded to an antagonistic effect, and the value of E-E0, which was from −10% to 10%, corresponded to an additional effect.

Capsella bursa-pastoris = assay: as above; format: in vivo; details: Capsella bursa-pastoris, 480 h, read-out: Control effect (%) of A applied alone in corresponding dose
Method: as §1, §2, §3
In the stage of weeds with 3˜4 leaves, the weeds were thinned out to maintain 15 weeds per pot and 45 weeds for each treatment, then continued to be cultured to 4˜5 leaves stage of grassy weeds, 5˜6 leaves stage of broadleaf weeds, and treated.
as §4, §5, §6
Wherein, in the formula, X represented the fresh weight inhibition rate of the active ingredient A in a dosage of P, and Y represented the fresh weight inhibition rate of the active ingredient B in a dosage of Q.

[1] = A alone 75 g a.i./ha, 20 days after treatment
[2] = A alone 150 g a.i./ha, 20 days after treatment

Compound	pest or weed control at 75 g/ha (Digitaria sanguinalis; A 75 g a.i./ha, 20 days) [%]	pest or weed control at 150 g/ha (Digitaria sanguinalis; A 150 g a.i./ha, 20 days) [%]	pest or weed control at 75 g/ha (Capsella bursa-pastoris; A 75 g a.i./ha, 20 days) [%]	pest or weed control at 150 g/ha (Capsella bursa-pastoris; A 150 g a.i./ha, 20 days) [%]	pest or weed control at 75 g/ha (Digitaria sanguinalis; [1]) [%]	pest or weed control at 150 g/ha (Digitaria sanguinalis; [2]) [%]	pest or weed control at 75 g/ha (Capsella bursa-pastoris; [1]) [%]	pest or weed control at 150 g/ha (Capsella bursa-pastoris; [2]) [%]
CCCCCCCCCCCOC(=O)[C@@H](C)Oc1nc(F)c(Cl)c(N)c1Cl [Compound A94]	23.4	51.7	6.2	12.6	–	–	–	–
CC(C)=NOC(=O)[C@@H](C)Oc1nc(F)c(Cl)c(N)c1Cl [Compound A130]	–	–	–	–	16.7	36.8	5.4	13.2
C[C@@H](Oc1nc(F)c(Cl)c(N)c1Cl)C(=O)OCc1ccccc1 [Compound A141]	27.7	55.8	7.8	16.4	–	–	–	–
COC(=O)[C@H](Oc1nc(F)c(Cl)c(N)c1Cl)c1ccccc1 [Compound A171]	19.2	31.9	12.2	28.9	–	–	–	–
CC[C@@H](Oc1nc(F)c(Cl)c(N)c1Cl)C(=O)OC [Compound A172]	21.2	38.9	22.4	47.9	–	–	–	–
COC(=O)[C@@H](C)Oc1ncc(Cl)c(N)c1Cl [Compound A173]	38.2	73.6	24.8	52.4	–	–	–	–

— patent US20220264878A1, “HERBICIDAL COMPOSITION CONTAINING R-TYPE PYRIDYLOXY CARBOXYLIC ACID DERIVATIVE AND USE THEREOF” (Qingdao Kingagroot Chemical Compound Co., Ltd., priority 2019, published 2022)
